From the supplement of paper PMC4862054

System: HCC1143
Test: drug sensitivity score (DSS), CellTox Green (DSS (AUC-based score)); higher = stronger drug effect (viability inhibition or cytotoxicity); extreme values may be limits of the assay
Conditions: incubation time: 72 h
How it was run: (§1)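 Breast cancer cell lines, seeded as 20 µl suspension, were incubated 72 h with compound in 384-well plates at 5 concentrations in 10-fold steps over a 10,000-fold range set for each compound. Fluorescence from CellTox Green was read at 485/520 nm before CellTiter-Glo luminescence, which was read after 10 min at room temperature. Every plate was normalised to 0.1 % DMSO and a positive kill control, and the drug sensitivity score was taken from the area under the fitted dose-response curve.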

`N#Cc1ccc(C(c2ccc(C#N)cc2)n2cncn2)cc1` [Letrozole] and `O=C(Cc1ccc(-c2ccc(OCCN3CCOCC3)cc2)cn1)NCc1ccccc1` [KX2-391] are the same in drug sensitivity score: 0 for the first, 0 for the second.

`O=C(O)CCCCC(CCSCc1ccccc1)SCc1ccccc1` (stereo not drawn) [CPI-613] and `O=C(/C=C/c1cccnc1)NCCCCC1CCN(C(=O)c2ccccc2)CC1` [Daporinad] are the same in drug sensitivity score: 0 for the first, 0 for the second.

`CCCS(=O)(=O)Nc1ccc(F)c(C(=O)c2c[nH]c3ncc(-c4ccc(Cl)cc4)cc23)c1F` [Vemurafenib] and `Nc1nc2[nH]cc(CCc3ccc(C(=O)N[C@@H](CCC(=O)O)C(=O)O)cc3)c2c(=O)[nH]1` [Pemetrexed] are the same in drug sensitivity score: 0 for the first, 0 for the second.

`COc1cc2c(Oc3ccc4[nH]c(C)cc4c3F)ncnc2cc1OCCCN1CCCC1` [Cediranib] and `Cc1cnc(NC(=O)Nc2cc(Br)c(C)cc2OC[C@@H]2CNCCO2)cn1` [Rabusertib] are the same in drug sensitivity score: 0 for the first, 0 for the second.

`C[C@H]1C[C@@H]2[C@H]([C@@H](O)C[C@@]3(C)[C@H]2CC[C@]3(O)C(=O)CO)[C@@]2(C)C=CC(=O)C=C12` [Methylprednisolone] and `Oc1ncc(N(CCCl)CCCl)c(O)n1` [Uracil mustard] are the same in drug sensitivity score: 0 for the first, 0 for the second.

System: HCC1599
Test: as above
Conditions: incubation time: 72 h
How it was run: as §1

Going from `C=CC(=O)N1CCC[C@@H](n2nc(-c3ccc(Oc4ccccc4)cc3)c3c(N)ncnc32)C1` [Ibrutinib] to `O=C(Cc1ccc(-c2ccc(OCCN3CCOCC3)cc2)cn1)NCc1ccccc1` [KX2-391], the drug sensitivity score rises from 0 to 3.99.

`CNC(=O)c1cc(Oc2ccc(NC(=O)Nc3cc(C(C)(C)C)nn3-c3ccc4ncccc4c3)c(F)c2)ccn1` [Rebastinib] and `CCCS(=O)(=O)Nc1ccc(F)c(C(=O)c2c[nH]c3ncc(-c4ccc(Cl)cc4)cc23)c1F` [Vemurafenib] are the same in drug sensitivity score: 0 for the first, 0 for the second.

`O=C(O)C1(C(=O)O)CCC1.[NH2-].[NH2-].[Pt+2]` [Carboplatin] and `C[C@H]1C[C@@H]2[C@H]([C@@H](O)C[C@@]3(C)[C@H]2CC[C@]3(O)C(=O)CO)[C@@]2(C)C=CC(=O)C=C12` [Methylprednisolone] are the same in drug sensitivity score: 0 for the first, 0 for the second.

`N#Cc1ccc(C(c2ccc(C#N)cc2)n2cncn2)cc1` [Letrozole] and `O=C(O)CCCCC(CCSCc1ccccc1)SCc1ccccc1` (stereo not drawn) [CPI-613] are the same in drug sensitivity score: 0 for the first, 0 for the second.

`COc1cc2c(Oc3ccc4[nH]c(C)cc4c3F)ncnc2cc1OCCCN1CCCC1` [Cediranib] and `Cc1cnc(NC(=O)Nc2cc(Br)c(C)cc2OC[C@@H]2CNCCO2)cn1` [Rabusertib] are the same in drug sensitivity score: 0 for the first, 0 for the second.

`O=C(/C=C/c1cccnc1)NCCCCC1CCN(C(=O)c2ccccc2)CC1` [Daporinad] and `Nc1nc2[nH]cc(CCc3ccc(C(=O)N[C@@H](CCC(=O)O)C(=O)O)cc3)c2c(=O)[nH]1` [Pemetrexed] are the same in drug sensitivity score: 0 for the first, 0 for the second.

`Oc1ncc(N(CCCl)CCCl)c(O)n1` [Uracil mustard] was tested, and the drug sensitivity score was 0.

System: MDA-MB-453
Test: as above
Conditions: incubation time: 72 h
How it was run: as §1

Going from `C=CC(=O)N1CCC[C@@H](n2nc(-c3ccc(Oc4ccccc4)cc3)c3c(N)ncnc32)C1` [Ibrutinib] to `O=C(Cc1ccc(-c2ccc(OCCN3CCOCC3)cc2)cn1)NCc1ccccc1` [KX2-391], the drug sensitivity score falls from 1.03 to 0.

`CNC(=O)c1cc(Oc2ccc(NC(=O)Nc3cc(C(C)(C)C)nn3-c3ccc4ncccc4c3)c(F)c2)ccn1` [Rebastinib] and `CCCS(=O)(=O)Nc1ccc(F)c(C(=O)c2c[nH]c3ncc(-c4ccc(Cl)cc4)cc23)c1F` [Vemurafenib] are the same in drug sensitivity score: 0 for the first, 0 for the second.

`O=C(O)C1(C(=O)O)CCC1.[NH2-].[NH2-].[Pt+2]` [Carboplatin] and `C[C@H]1C[C@@H]2[C@H]([C@@H](O)C[C@@]3(C)[C@H]2CC[C@]3(O)C(=O)CO)[C@@]2(C)C=CC(=O)C=C12` [Methylprednisolone] are the same in drug sensitivity score: 0 for the first, 0 for the second.

`N#Cc1ccc(C(c2ccc(C#N)cc2)n2cncn2)cc1` [Letrozole] and `O=C(O)CCCCC(CCSCc1ccccc1)SCc1ccccc1` (stereo not drawn) [CPI-613] are the same in drug sensitivity score: 0 for the first, 0 for the second.

`COc1cc2c(Oc3ccc4[nH]c(C)cc4c3F)ncnc2cc1OCCCN1CCCC1` [Cediranib] and `Cc1cnc(NC(=O)Nc2cc(Br)c(C)cc2OC[C@@H]2CNCCO2)cn1` [Rabusertib] are the same in drug sensitivity score: 0 for the first, 0 for the second.

`O=C(/C=C/c1cccnc1)NCCCCC1CCN(C(=O)c2ccccc2)CC1` [Daporinad] and `Nc1nc2[nH]cc(CCc3ccc(C(=O)N[C@@H](CCC(=O)O)C(=O)O)cc3)c2c(=O)[nH]1` [Pemetrexed] are the same in drug sensitivity score: 0 for the first, 0 for the second.

With `Oc1ncc(N(CCCl)CCCl)c(O)n1` [Uracil mustard] the drug sensitivity score was 0.

System: CAL-120
Test: as above
Conditions: incubation time: 72 h
How it was run: as §1

First: C=CC(=O)N1CCC[C@@H](n2nc(-c3ccc(Oc4ccccc4)cc3)c3c(N)ncnc32)C1 [Ibrutinib]
Second: O=C(Cc1ccc(-c2ccc(OCCN3CCOCC3)cc2)cn1)NCc1ccccc1 [KX2-391]
The drug sensitivity score of the first is lower: 0 for the first, 1.54 for the second.

`CNC(=O)c1cc(Oc2ccc(NC(=O)Nc3cc(C(C)(C)C)nn3-c3ccc4ncccc4c3)c(F)c2)ccn1` [Rebastinib] and `CCCS(=O)(=O)Nc1ccc(F)c(C(=O)c2c[nH]c3ncc(-c4ccc(Cl)cc4)cc23)c1F` [Vemurafenib] are the same in drug sensitivity score: 0 for the first, 0 for the second.

`O=C(O)C1(C(=O)O)CCC1.[NH2-].[NH2-].[Pt+2]` [Carboplatin] and `C[C@H]1C[C@@H]2[C@H]([C@@H](O)C[C@@]3(C)[C@H]2CC[C@]3(O)C(=O)CO)[C@@]2(C)C=CC(=O)C=C12` [Methylprednisolone] are the same in drug sensitivity score: 0 for the first, 0 for the second.

`N#Cc1ccc(C(c2ccc(C#N)cc2)n2cncn2)cc1` [Letrozole] and `O=C(O)CCCCC(CCSCc1ccccc1)SCc1ccccc1` (stereo not drawn) [CPI-613] are the same in drug sensitivity score: 0 for the first, 0 for the second.

`COc1cc2c(Oc3ccc4[nH]c(C)cc4c3F)ncnc2cc1OCCCN1CCCC1` [Cediranib] and `Cc1cnc(NC(=O)Nc2cc(Br)c(C)cc2OC[C@@H]2CNCCO2)cn1` [Rabusertib] are the same in drug sensitivity score: 0 for the first, 0 for the second.

`O=C(/C=C/c1cccnc1)NCCCCC1CCN(C(=O)c2ccccc2)CC1` [Daporinad] and `Nc1nc2[nH]cc(CCc3ccc(C(=O)N[C@@H](CCC(=O)O)C(=O)O)cc3)c2c(=O)[nH]1` [Pemetrexed] are the same in drug sensitivity score: 0 for the first, 0 for the second.

For `Oc1ncc(N(CCCl)CCCl)c(O)n1` [Uracil mustard], the drug sensitivity score was 0.

System: CAL-85-1
Test: as above
Conditions: incubation time: 72 h
How it was run: as §1

First: C=CC(=O)N1CCC[C@@H](n2nc(-c3ccc(Oc4ccccc4)cc3)c3c(N)ncnc32)C1 [Ibrutinib]
Second: O=C(Cc1ccc(-c2ccc(OCCN3CCOCC3)cc2)cn1)NCc1ccccc1 [KX2-391]
The drug sensitivity score of the first is lower: 4.71 for the first, 17.3 for the second.

First: CNC(=O)c1cc(Oc2ccc(NC(=O)Nc3cc(C(C)(C)C)nn3-c3ccc4ncccc4c3)c(F)c2)ccn1 [Rebastinib]
Second: CCCS(=O)(=O)Nc1ccc(F)c(C(=O)c2c[nH]c3ncc(-c4ccc(Cl)cc4)cc23)c1F [Vemurafenib]
The drug sensitivity score of the first is higher: 2.09 for the first, 0 for the second.

`O=C(O)C1(C(=O)O)CCC1.[NH2-].[NH2-].[Pt+2]` [Carboplatin] and `C[C@H]1C[C@@H]2[C@H]([C@@H](O)C[C@@]3(C)[C@H]2CC[C@]3(O)C(=O)CO)[C@@]2(C)C=CC(=O)C=C12` [Methylprednisolone] are the same in drug sensitivity score: 0 for the first, 0 for the second.

Compared with `N#Cc1ccc(C(c2ccc(C#N)cc2)n2cncn2)cc1` [Letrozole], `O=C(O)CCCCC(CCSCc1ccccc1)SCc1ccccc1` (stereo not drawn) [CPI-613] is higher in drug sensitivity score: 0 for the first, 0.118 for the second.

First: COc1cc2c(Oc3ccc4[nH]c(C)cc4c3F)ncnc2cc1OCCCN1CCCC1 [Cediranib]
Second: Cc1cnc(NC(=O)Nc2cc(Br)c(C)cc2OC[C@@H]2CNCCO2)cn1 [Rabusertib]
The drug sensitivity score of the first is higher: 1.23 for the first, 0 for the second.

`O=C(/C=C/c1cccnc1)NCCCCC1CCN(C(=O)c2ccccc2)CC1` [Daporinad] and `Nc1nc2[nH]cc(CCc3ccc(C(=O)N[C@@H](CCC(=O)O)C(=O)O)cc3)c2c(=O)[nH]1` [Pemetrexed] are the same in drug sensitivity score: 0 for the first, 0 for the second.

For `Oc1ncc(N(CCCl)CCCl)c(O)n1` [Uracil mustard], the drug sensitivity score was 0.

System: MDA-MB-436
Test: as above
Conditions: incubation time: 72 h
How it was run: as §1

Going from `C=CC(=O)N1CCC[C@@H](n2nc(-c3ccc(Oc4ccccc4)cc3)c3c(N)ncnc32)C1` [Ibrutinib] to `O=C(Cc1ccc(-c2ccc(OCCN3CCOCC3)cc2)cn1)NCc1ccccc1` [KX2-391], the drug sensitivity score rises from 0 to 4.73.

`CNC(=O)c1cc(Oc2ccc(NC(=O)Nc3cc(C(C)(C)C)nn3-c3ccc4ncccc4c3)c(F)c2)ccn1` [Rebastinib] and `CCCS(=O)(=O)Nc1ccc(F)c(C(=O)c2c[nH]c3ncc(-c4ccc(Cl)cc4)cc23)c1F` [Vemurafenib] are the same in drug sensitivity score: 0 for the first, 0 for the second.

`O=C(O)C1(C(=O)O)CCC1.[NH2-].[NH2-].[Pt+2]` [Carboplatin] and `C[C@H]1C[C@@H]2[C@H]([C@@H](O)C[C@@]3(C)[C@H]2CC[C@]3(O)C(=O)CO)[C@@]2(C)C=CC(=O)C=C12` [Methylprednisolone] are the same in drug sensitivity score: 0 for the first, 0 for the second.

`N#Cc1ccc(C(c2ccc(C#N)cc2)n2cncn2)cc1` [Letrozole] and `O=C(O)CCCCC(CCSCc1ccccc1)SCc1ccccc1` (stereo not drawn) [CPI-613] are the same in drug sensitivity score: 0 for the first, 0 for the second.

`COc1cc2c(Oc3ccc4[nH]c(C)cc4c3F)ncnc2cc1OCCCN1CCCC1` [Cediranib] and `Cc1cnc(NC(=O)Nc2cc(Br)c(C)cc2OC[C@@H]2CNCCO2)cn1` [Rabusertib] are the same in drug sensitivity score: 0 for the first, 0 for the second.

`O=C(/C=C/c1cccnc1)NCCCCC1CCN(C(=O)c2ccccc2)CC1` [Daporinad] and `Nc1nc2[nH]cc(CCc3ccc(C(=O)N[C@@H](CCC(=O)O)C(=O)O)cc3)c2c(=O)[nH]1` [Pemetrexed] are the same in drug sensitivity score: 0 for the first, 0 for the second.

In the case of `Oc1ncc(N(CCCl)CCCl)c(O)n1` [Uracil mustard], the drug sensitivity score is reported as 0.

System: MFM-223
Test: as above
Conditions: incubation time: 72 h
How it was run: as §1

First: C=CC(=O)N1CCC[C@@H](n2nc(-c3ccc(Oc4ccccc4)cc3)c3c(N)ncnc32)C1 [Ibrutinib]
Second: O=C(Cc1ccc(-c2ccc(OCCN3CCOCC3)cc2)cn1)NCc1ccccc1 [KX2-391]
The drug sensitivity score of the first is lower: 0 for the first, 13.2 for the second.

`CNC(=O)c1cc(Oc2ccc(NC(=O)Nc3cc(C(C)(C)C)nn3-c3ccc4ncccc4c3)c(F)c2)ccn1` [Rebastinib] and `CCCS(=O)(=O)Nc1ccc(F)c(C(=O)c2c[nH]c3ncc(-c4ccc(Cl)cc4)cc23)c1F` [Vemurafenib] are the same in drug sensitivity score: 0 for the first, 0 for the second.

`O=C(O)C1(C(=O)O)CCC1.[NH2-].[NH2-].[Pt+2]` [Carboplatin] and `C[C@H]1C[C@@H]2[C@H]([C@@H](O)C[C@@]3(C)[C@H]2CC[C@]3(O)C(=O)CO)[C@@]2(C)C=CC(=O)C=C12` [Methylprednisolone] are the same in drug sensitivity score: 0 for the first, 0 for the second.

`N#Cc1ccc(C(c2ccc(C#N)cc2)n2cncn2)cc1` [Letrozole] and `O=C(O)CCCCC(CCSCc1ccccc1)SCc1ccccc1` (stereo not drawn) [CPI-613] are the same in drug sensitivity score: 0 for the first, 0 for the second.

`COc1cc2c(Oc3ccc4[nH]c(C)cc4c3F)ncnc2cc1OCCCN1CCCC1` [Cediranib] and `Cc1cnc(NC(=O)Nc2cc(Br)c(C)cc2OC[C@@H]2CNCCO2)cn1` [Rabusertib] are the same in drug sensitivity score: 0 for the first, 0 for the second.

`O=C(/C=C/c1cccnc1)NCCCCC1CCN(C(=O)c2ccccc2)CC1` [Daporinad] and `Nc1nc2[nH]cc(CCc3ccc(C(=O)N[C@@H](CCC(=O)O)C(=O)O)cc3)c2c(=O)[nH]1` [Pemetrexed] are the same in drug sensitivity score: 0 for the first, 0 for the second.

`Oc1ncc(N(CCCl)CCCl)c(O)n1` [Uracil mustard] gave a drug sensitivity score of 0.
